Experimental data published in US20260125382A1, “COMPOUNDS FOR INHIBITING OR DEGRADING CDK2 AND/OR CDK9 AND MEDICINAL USE THEREOF” (KOREA RESEARCH INSTITUTE OF CHEMICAL TECHNOLOGY, priority 2022, published 2026).

Assays:
CDK2 = biological target: T1, CDK2 (Homo sapiens, UniProt P24941); assay: CDK protein degradation activity (Western blotting), CDK2; type: cell-based; conditions: MDA-MB-231 cells, 16 hours, Western blot
T1 construct: endogenous in cells; host or cells: MDA-MB-231
Procedure, shortened: (§1)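 MDA-MB-231 cells were treated with compound at final concentrations of 100 nM, 1 μM and 10 μM, or DMSO vehicle, for 16 h. Lysates were resolved by SDS-PAGE and immunoblotted for CDK2, CDK9 and tubulin, with band intensities quantified densitometrically.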

CDK9 = biological target: T2, CDK9 (Homo sapiens, UniProt P50750); assay: CDK protein degradation activity (Western blotting), CDK9; type: cell-based; conditions: MDA-MB-231 cells, 16 hours, Western blot
T2 construct: endogenous in cells; host or cells: MDA-MB-231
T2 sequence (P50750 whole entry): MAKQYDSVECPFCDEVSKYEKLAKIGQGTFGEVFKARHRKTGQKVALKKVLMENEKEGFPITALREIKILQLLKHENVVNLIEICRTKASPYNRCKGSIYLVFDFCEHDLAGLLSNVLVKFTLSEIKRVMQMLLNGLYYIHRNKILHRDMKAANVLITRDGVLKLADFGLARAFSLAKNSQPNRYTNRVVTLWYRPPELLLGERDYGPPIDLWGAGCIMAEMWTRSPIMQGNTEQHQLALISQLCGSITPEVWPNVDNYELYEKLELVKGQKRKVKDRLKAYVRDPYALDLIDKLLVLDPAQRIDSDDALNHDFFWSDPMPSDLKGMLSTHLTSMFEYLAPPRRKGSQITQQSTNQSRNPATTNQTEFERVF
Procedure, shortened: as §1

| Enzyme degradation CDK2 (% remaining) @ 0.1 μM (CDK2) | Enzyme degradation CDK2 (% remaining) @ 1 μM (CDK2) | Enzyme degradation CDK2 (% remaining) @ 10 μM (CDK2) | Enzyme degradation CDK9 (% remaining) @ 0.1 μM (CDK9) | Enzyme degradation CDK9 (% remaining) @ 1 μM (CDK9) | Enzyme degradation CDK9 (% remaining) @ 10 μM (CDK9) | Compound |
| --- | --- | --- | --- | --- | --- | --- |
| 20/20/20% | 20/20/20% | 20/20/20% | 0/0/0% | 0/0/0% | 0/0/0% | O=C1CC[C@H](N2C(=O)c3cc(F)c(N4CCC(C(=O)N5CCN(CC6CCN(c7ccc(Nc8ncnc9c8ncn9[C@H]8C[C@@H](NC(=O)c9c(Cl)cccc9Cl)C8)cc7)CC6)CC5)CC4)cc3C2=O)C(=O)N1 [Compound 475, 2,6-dichloro-N-((1s,3s)-3-(6-((4-(4-((4-(1-(2-(2,6-dioxopiperidin-3-yl)-6-fluoro-1,3-dioxoisoindolin-5-yl)piperidin-4-carbonyl)piperazin-1-yl)methyl)piperidin-1-yl)phenyl)amino)-9H-purin-9-yl)cyclobutyl)benzamide] |
| 70% |  | 60% | 50% | 10% | 10% | Cc1cccc(C(=O)N[C@H]2C[C@@H](n3cnc4c(Nc5ccc(N6CCN(CC7CCN(C(=O)C8CCN(c9cc%10c(cc9F)C(=O)N([C@H]9CCC(=O)NC9=O)C%10=O)CC8)CC7)CC6)cc5)ncnc43)C2)n1 [Compound 476, N-((1s,3s)-3-(6-((4-(4-((1-(1-(2-(2,6-dioxopiperidin-3-yl)-6-fluoro-1,3-dioxoisoindolin-5-yl)piperidin-4-carbonyl)piperidin-4-yl)methyl)piperazin-1-yl)phenyl)amino)-9H-purin-9-yl)cyclobutyl)-6-methylpicolinamide] |
| 20/20/20% | 20/20/20% | 20/20/20% | 30/30/30% | 30/30/30% | 30/30/30% | Cc1cccc(C(=O)NC2CC(n3cnc4c(Nc5ccc(N6CCN(CC7CCN(C(=O)C8CCN(c9cc%10c(cc9F)C(=O)N([C@H]9CCC(=O)NC9=O)C%10=O)CC8)CC7)CC6)cc5C)ncnc43)C2)n1 (some centres unmarked) [Compound 477, N-((1s,3s)-3-(6-((4-(4-((1-(1-(2-(2,6-dioxopiperidin-3-yl)-6-fluoro-1,3-dioxoisoindolin-5-yl)piperidin-4-carbonyl)piperidin-4-yl)methyl)piperazin-1-yl)-2-methylphenyl)amino)-9H-purin-9-yl)cyclobutyl)-6-methylpicolinamide] |
| 10% | 20% | 20% | 20/20/20% | 20/20/20% | 20/20/20% | Cc1cccc(C(=O)NC2CC(n3cnc4c(Nc5ccc(N6CCN(CC7CCN(c8ccc9nnn([C@H]%10CCC(=O)NC%10=O)c(=O)c9c8)CC7)CC6)cc5C)ncnc43)C2)n1 (some centres unmarked) [Compound 478, N-((1s,3s)-3-(6-((4-(4-((1-(3-(2,6-dioxopiperidin-3-yl)-4-oxo-3,4-dihydrobenzo[d][1,2,3]triazin-6-yl)piperidin-4-yl)methyl)piperazin-1-yl)-2-methylphenyl)amino)-9H-purin-9-yl)cyclobutyl)-6-methylpicolinamide] |
| 50% | 60% | 60% | 30% | 20% | 20% | O=C1CC[C@H](N2C(=O)c3ccc(N4CCN(CC=CCN5CCC6(CC5)CC(N5CCN(c7ccc(Nc8ncnc9c8ncn9C8CC(NC(=O)Cc9ccccc9)C8)cc7)CC5)C6)CC4)cc3C2=O)C(=O)N1 (some centres unmarked) [Compound 479, N-((1s,3s)-3-(6-((4-(4-(7-(4-(4-(2-(2,6-dioxopiperidin-3-yl)-1,3-dioxoisoindolin-5-yl)piperazin-1-yl)but-2-en-1-yl)-7-azaspiro[3.5]nonan-2-yl)piperazin-1-yl)phenyl)amino)-9H-purin-9-yl)cyclobutyl)-2-phenylacetamide] |

The remaining lines, values behind:

| Compound | Enzyme degradation CDK2 (% remaining) @ 0.1 μM (CDK2) | Enzyme degradation CDK2 (% remaining) @ 1 μM (CDK2) | Enzyme degradation CDK2 (% remaining) @ 10 μM (CDK2) | Enzyme degradation CDK9 (% remaining) @ 0.1 μM (CDK9) | Enzyme degradation CDK9 (% remaining) @ 1 μM (CDK9) | Enzyme degradation CDK9 (% remaining) @ 10 μM (CDK9) |
| --- | --- | --- | --- | --- | --- | --- |
| O=C1CC[C@H](N2C(=O)c3cc(F)c(N4CCC(C(=O)N5CCC(CN6CCN(c7ccc(Nc8ncnc9c8ncn9[C@H]8C[C@@H](NC(=O)c9cccc(C(F)(F)F)n9)C8)cc7)CC6)CC5)CC4)cc3C2=O)C(=O)N1 [Compound 471, N-((1s,3s)-3-(6-((4-(4-((1-(1-(2-(2,6-dioxopiperidin-3-yl)-6-fluoro-1,3-dioxoisoindolin-5-yl)piperidin-4-carbonyl)piperidin-4-yl)methyl)piperazin-1-yl)phenyl)amino)-9H-purin-9-yl)cyclobutyl)-6-(trifluoromethyl)picolinamide] | 50% | 40% | 40% | 0/0/0% | 0/0/0% | 0/0/0% |
| N#Cc1cccc(C(=O)NC2CC(n3cnc4c(Nc5ccc(N6CCN(CC7CCN(C(=O)C8CCN(c9cc%10c(cc9F)C(=O)N([C@H]9CCC(=O)NC9=O)C%10=O)CC8)CC7)CC6)cc5)ncnc43)C2)n1 (some centres unmarked) [Compound 472, 6-cyano-N-((1s,3s)-3-(6-((4-(4-((1-(1-(2-(2,6-dioxopiperidin-3-yl)-6-fluoro-1,3-dioxoisoindolin-5-yl)piperidin-4-carbonyl)piperidin-4-yl)methyl)piperazin-1-yl)phenyl)amino)-9H-purin-9-yl)cyclobutyl)picolinamide] | 40% | 40% | 50% | 0/0/0% | 0/0/0% | 0/0/0% |
| O=C1CCC(N2C(=O)c3ccc(N4CCC(C(=O)N5CCN(CC6CCN(c7ccc(Nc8ncnc9c8ncn9[C@H]8C[C@@H](NC(=O)c9c(Cl)cccc9Cl)C8)cc7)CC6)CC5)CC4)cc3C2=O)C(=O)N1 (some centres unmarked) [Compound 474, 2,6-dichloro-N-((1s,3s)-3-(6-((4-(4-((4-(1-(2-(2,6-dioxopiperidin-3-yl)-1,3-dioxoisoindolin-5-yl)piperidin-4-carbonyl)piperazin-1-yl)methyl)piperidin-1-yl)phenyl)amino)-9H-purin-9-yl)cyclobutyl)benzamide] | 20% | 30% | 30% | 10% | 0% | 0% |
| N-((1s,3s)-3-(6-((4-(4-(2-(1-(1-(2-(2,6-dioxopiperidin-3-yl)-1,3-dioxoisoindolin-5-yl)piperidin-4-carbonyl)piperidin-4-yl)ethyl)piperazin-1-yl)phenyl)amino)-9H-purin-9-yl)cyclobutyl)-2-phenylacetamide [Compound 404] | 50/50/50% | 50/50/50% | 50/50/50% | 0/0/0% | 0/0/0% | 0/0/0% |
